# Test results as given in patent EP3492086B1, “PHARMACEUTICAL COMPOSITION COMPRISING ZEBULARINE (1-(BETA-D-RIBOFURANOSYL)-2(1H)-PYRIMIDINONE) FOR USE IN PROMOTING REGENERATION AND WOUND HEALING” (Uniwersytet Gdanski, priority 2017, dated 2019).
# Key:
# laboratory mice = details: GM284 topical delivery (US2009/0093528A1); XAV-939 (Bastakoty et al. 2015); 1,4-DPCA (Zhang et al. 2015); cited from earlier work
# [1] = system: ear pinnae of the BALB/c 2-month-old female mice; assay: Ear pinnae hole closure (ear pinnae injury model, 2 mm through-and-through holes); type: in vivo
# Method: In order to evaluate the regenerative effect of zebularine, through-and-through holes of 2 mm diameter were made in the ear pinnae of the BALB/c 2-month-old female mice using scissor style ear punch. The mice were randomly divided into two groups consisting of six individuals each. The mice of one group were intraperitoneally injected with 7 doses of zebularine dissolved in saline (50 mg/ml), 1000 mg/kg body weight, on the day of injury directly after punching, and 1, 2, 3, 4, 7, 10 days after injury. The second, control group, was administered with saline.
# The experiment was repeated 8 times. Collectively, the experiment was performed for 47 zebularine treated and 48 saline (vehiculum) administered control mice. […] The mean ear hole areas determined on the day 42 post injury were 0.53+/-0.3 and 1.77+/-0.48 sq mm for zebularine treated and saline controls, respectively. The results expressed as percentage of wound closure correspond to 83.2% and 43.6% for the zebularine treated and control group, respectively (Figure 2).The timeline of regeneration process is presented in Figure 3. […] The distributions of ear hole areas on the day 42 after injury were plotted as dot diagrams, where each dot represents an individual ear (Figure 4). The diagrams not only show the biological variation in response to injury and zebularine treatment but clearly expose the contrast between the control and zebularine treated groups. […]
# [2] = system: Cdkn2a, Msx1, Nanog, Sox2, Bdnf, Sox1, Nog, and Myt1l; assay: Expression of pluripotency, developmental and cell cycle genes in the injury/repair area (real-time PCR); type: in vivo; details: day 7 after injury; zebularine treated versus control mice; most remarkable for Nanog and Sox2
# From the text: In order to determine the effect of zebularine on the expression of pluripotency, developmental and cell cycle genes, the transcript levels for a panel of selected genes including Cdkn2a, Msx1, Nanog, Sox2, Bdnf, Sox1, Nog, and Myt1l were examined in the injury/repair area, in zebularine treated and control mice at the day 7, 14, 21 and 42 following injury in addition to unwounded ear pinnae designated as day 0. For the purpose, the ear punched mice were sacrificed at selected time points, the ears were collected on RNAlater reagent (Qiagen), stored at -80 °C until the rings surrounding the holes were excised using a 3 mm biopsy punch, following RNA extraction from thus obtained tissues using RNeasy kit (Qiagen). The levels of selected transcripts were determined for 6 mice (8 ears) for each time point using real-time PCR quantitation and Tbp and Actb as the reference genes. […] The most remarkable changes were found for the pluripotency genes, Nanog and Sox2 (Figure 7).
# [3] = 37°C, pH 7.4 (Cheng et al. 2003); cited from earlier work
# [4] = system: dorsal skin wounds, mice of the BALB/c strain; assay: Dorsal skin excision model, topical delivery, wound closure; type: in vivo
# Method: The effect of topically delivered zebularine on wound healing was determined using the dorsal skin excision model. Six 2-month-old female mice of the BALB/c strain were used for the experiment. Prior to the injury, the mice were anaesthetized. The dorsal skin was shaved and disinfected. Two symmetrical full-thickness excisional wounds were made in the dorsum using a biopsy punch of 6 mm diameter. Ten microliter of zebularine suspension (200 mg per 1 ml of saline) was dropped directly onto the wound immediately after wounding and once daily for the next four days. Promptly after zebularine application, the wounds were covered with a transparent dressing, and next, the dressing was fastened with adhesive plaster wrapped around the mouse. An analogical experiment was performed for six mice of control group that were not treated with zebularine. The animal study protocol was approved by the Local Ethics Committee for Animal Experimentation at the University of Science and Technology in Bydgoszcz, Poland (Permit No. 49/2016).
# The wounds were photographed on the day of injury (d0) and on the day 2, 4, 7, 9, 11, 14, and 18 after wounding. The wound closure progress was tracked by determining wound area using computer-assisted image analysis. […] Complete wound closure was observed on the day 11 for zebularine treated mice and on the day 18 for the control ones (Figure 13).
# [5] = estimated (Ben-Kasus et al. 2005); cited from earlier work
# mice = details: 400 mg/kg body weight intraperitoneally for 78 consecutive days (Herranz et al. 2006); cited from earlier work
# 5-methylcytosine = assay: Global DNA methylation in the injury/regeneration area (5-mC DNA ELISA); type: in vivo, mice; details: day 7 following injury; zebularine treated versus control
# From the text: DNA methylation in promoter regions is one of key epigenetic mechanisms responsible for gene repression. In order to determine the zebularine demethylating effect on DNA in the regenerating tissues, the content of 5-methylcytosine was compared in the tissues collected from the rings surrounding the ear pinnae holes in the zebularine treated and control animals. For the purpose, the ear punched zebularine treated and control mice were sacrificed at the days 7, 14, 21, and 42 after injury. The ears were collected, and the rings surrounding the holes were excised with a 3 mm biopsy punch, following genomic DNA extraction from thus obtained tissues using DNeasy kit (Qiagen). The levels of 5-methylcytosine were estimated using 5-mC DNA ELISA Kit (ZYMO, D5325) in 100 ng aliquots of genomic DNA.
smiles,measurement,setting,value
"O=C(O)c1c[nH]c2c(ccc3cccnc32)c1=O [1,4-DPCA, 4-oxo-1H-1,10-phenanthroline-3-carboxylic acid]",ear hole closure reported in the literature (result in words),laboratory mice,partial ear hole closure induction
"CC1=C(/C=C/C(C)=C/C=C/C(C)=C/C(=O)O)C(C)(C)CCC1=O [4-keto RA, 4-keto retinoic acid, reference compound]",ear hole closure (result in words),"[1]; Example 4: i.p., zebularine 1000 mg/kg 7 times, RA or 4-keto RA 16 mg/kg 6 times, followed for 42 days",Partial ear hole closure
"Nc1ncn([C@@H]2O[C@H](CO)[C@@H](O)[C@H]2O)c(=O)n1 [5-azacytidine, reference compound]",effect on ear hole closure (result in words),"[1]; 0.25 mg/kg body weight i.p., 7 times, day 42, 6 mice, compared with zebularine and saline",did not stimulate ear hole closure
CCC(C)(C)C(=O)C(=O)N1CCC[C@H]1c1nnc([C@@H]2CCCN2C(=O)C(=O)C(C)(C)CC)o1 [GM284],ear hole closure reported in the literature (result in words),laboratory mice,Ear hole closure
Oc1nc(-c2ccc(C(F)(F)F)cc2)nc2c1CSCC2 [XAV-939],ear hole closure reported in the literature (result in words),laboratory mice,partial ear hole closure induction
"O=c1ncccn1[C@@H]1O[C@H](CO)[C@@H](O)[C@H]1O [zebularine, 1-(β-D-ribofuranosyl)-2(1H)-pyrimidinone]",expression of the selected transcripts in the injury/repair area,[2],Significantly enhanced expression
same,mean ear hole areas determined on the day 42 post injury,"[1]; 1000 mg/kg body weight intraperitoneally, 7 doses (day 0, 1, 2, 3, 4, 7, 10), 47 mice, saline control 1.77+/-0.48",0.53+/-0.3 sq mm
same,day after injury of maximal ear hole closure,"[1]; 1000 mg/kg i.p., 7 doses",35 days
same,day after injury from which significantly better ear hole closure was recorded,"[1]; 1000 mg/kg i.p., 7 doses, versus saline control",21 days
same,percentage of wound closure (ear hole closure area),"[1]; day 42 after injury, 1000 mg/kg i.p., 7 doses, control group 43.6%",83.2%
same,time to almost complete closure of the ear pinnae hole,"[1]; representative mouse, 1000 mg/kg i.p., 7 doses (Figure 1)",approximately 30 days
same,effect of subcutaneous delivery on ear pinnae hole closure,"[1]; subcutaneous injections, 1000 mg/kg, 7 doses, day 42 (Figure 6)",statistically significant response but proved less effective than intraperitoneal delivery
same,half-life in water,[3],21.2 days
same,decrease of the time of wound closure,"[4]; 10 microliter of 200 mg/ml suspension after wounding and once daily for four days, 6 mm wounds",approximately 7 days
same,day of complete wound closure,"[4]; 10 microliter of 200 mg/ml suspension, five applications, control day 18",11 days
same,RNA incorporation relative to DNA incorporation,[5],7 fold
same,toxic effects in mice,mice,No toxic effects
same,DNA methylation (5-methylcytosine content) in the injury/regeneration area,5-methylcytosine,significant decrease in DNA methylation
